Source: article PMC8453635, “Piperidine Azasugars Bearing Lipophilic Chains: Stereoselective Synthesis and Biological Activity as Inhibitors of Glucocerebrosidase (GCase)” (The Journal of Organic Chemistry, 2021)
“Also recorded” adds a separate entry of the source.

Columns and labels:
[1] = biological target: T1, GCase in fibroblasts bearing the L444P/L444P mutations (Homo sapiens, UniProt P04062, L483P); assay: Pharmacological chaperoning activity in L444P/L444P Gaucher fibroblasts; assay type: cell-based; details: for cell viability: 50 µM, 4 days; for GCase enzymatic activity rescue: 4 days incubation, 5 nM to 10 μM
T1 construct: fibroblasts derived from Gaucher patients bearing the N370S/RecNcil and L444P/L444P mutations; host or cells: fibroblasts from Gaucher disease patients, L444P/L444P
T1 sequence (P04062 40-536 L483P): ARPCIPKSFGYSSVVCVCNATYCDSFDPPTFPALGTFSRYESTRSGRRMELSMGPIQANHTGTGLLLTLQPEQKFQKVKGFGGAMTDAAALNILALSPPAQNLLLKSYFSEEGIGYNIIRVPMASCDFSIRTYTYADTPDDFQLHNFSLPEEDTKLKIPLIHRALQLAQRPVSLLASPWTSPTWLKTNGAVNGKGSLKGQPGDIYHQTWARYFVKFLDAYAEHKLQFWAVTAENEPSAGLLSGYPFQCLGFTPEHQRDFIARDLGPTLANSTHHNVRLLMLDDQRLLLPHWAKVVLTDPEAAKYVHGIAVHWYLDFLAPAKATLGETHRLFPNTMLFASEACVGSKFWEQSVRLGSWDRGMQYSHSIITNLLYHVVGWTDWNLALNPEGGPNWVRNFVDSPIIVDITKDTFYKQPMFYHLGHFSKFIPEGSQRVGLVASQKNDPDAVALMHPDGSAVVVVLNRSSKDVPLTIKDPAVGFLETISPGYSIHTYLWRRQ
Protocol: The ability of compounds 14 and 15 to enhance the activity of GCase after incubation (4 days) with fibroblasts bearing the selected mutations was evaluated. The experiments were performed using fibroblasts derived from Gaucher patients bearing the N370S/RecNcil and L444P/L444P mutations (see the Supporting Information section).
Fibroblasts with the N370S/RecNcil (or L444P/L444P) mutation from Gaucher disease patients were obtained from the “Cell line and DNA Biobank from patients affected by Genetic Diseases” (Gaslini Hospital, Genova, Italy). Fibroblast cells (15.0 × 10^4) were seeded in T25 flasks with DMEM supplemented with fetal bovine serum (10%), penicillin/streptomycin (1%), and glutamine (1%) and incubated at 37 °C with 5% CO2 for 24 h. The medium was removed, and fresh medium containing the compounds (14, 15 and 33·HCl) was added to the cells and incubated for 4 days. The medium was removed, and the cells were washed with PBS and detached with trypsin to obtain cell pellets, which were washed four times with PBS, frozen, and lysed by sonication in water. Enzyme activity was measured as reported above. Reported data are mean S.D. (n = 2).
Figure S52. Fibroblasts derived from GD patients bearing L444P/L444P mutations were incubated without (control, ctrl) or with 7 different concentrations (5 nM, 10 nM, 50 nM, 100 nM, 1 µM, 10 µM, 50 µM) of compounds 14 or 15. After 4 days, the flasks containing cells incubated with 50 µM […]
other concentrations, the GCase activity was determined in lysates from treated fibroblasts. Reported data are mean S.D. (n=2).
(also on this page, place not known: beta glucosidase activity (nmol/mg/h) beta glucosidase activity (nmol/mg/h))

[2] = tested on: α-L-fucosidase EC 3.2.1.51; assay: Commercial glycosidase screening; assay type: biochemical; details: Homo sapiens
Protocol: (§1) Preliminary biological evaluation of compounds 14 and 15 (at 100 μM inhibitor concentration) was performed toward a panel of 12 commercial glycosidases (α-L-fucosidase EC 3.2.1.51 from Homo sapiens, α-galactosidase EC 3.2.1.22 from coffee beans, β-galactosidases EC 3.2.1.23 from Escherichia coli and Aspergillus oryzae, α-glucosidases EC 3.2.1.20 from yeast and rice, amyloglucosidase EC 3.2.1.3 from Aspergillus niger, β-glucosidase EC 3.2.1.21 from almonds, α-mannosidase EC 3.2.1.24 from Jack beans, β-mannosidase EC 3.2.1.25 from snail, and β-N-acetylglucosaminidases EC 3.2.1.52 from Jack beans and bovine kidney).
(§2) The percentage (%) of inhibition for compounds 14 and 15 toward the corresponding glycosidase was determined by quadruplicate in the presence of 100 μM of the inhibitor on the well. Each enzymatic assay (final volume 0.12 mL) contains 0.01–0.5 units/mL of the enzyme (with previous calibration) and 4.2 mM aqueous solution of the appropriate p-nitrophenyl glycopyranoside (substrate) buffered to the optimal pH of the enzyme. Enzyme and inhibitor were pre-incubated for 5 min at rt, and the reaction started by addition of the substrate. After 20 min of incubation at 37 °C, the reaction was stopped by addition of 0.1 mL of sodium borate solution (pH 9.8). The p-nitrophenolate formed was measured by visible absorption spectroscopy at 405 nm (Asys Expert 96 spectrophotometer). Under these conditions, the p-nitrophenolate released led to optical densities linear with both reaction time and concentration of the enzyme.
(§3) Biological screening towards commercial glycosidases
(§4) α-L-fucosidase EC 3.2.1.51
(§5) α-galactosidase EC 3.2.1.22 […]
(§6) β-glucosidase EC 3.2.1.21
(§7) α-mannosidase EC 3.2.1.24
(§8) β-mannosidase EC 3.2.1.25 […]
(§9) “-“: no inhibition (or less than 15%) detected.

[3] = biological target: T2, α-mannosidase EC 3.2.1.24 (Canavalia ensiformis, UniProt C0HJB3); assay: Commercial glycosidase screening; assay type: biochemical; details: Jack beans, read-out: % Inhibition at 0.1 mM
T2 construct: purchased
T2 sequence (C0HJB3 whole entry): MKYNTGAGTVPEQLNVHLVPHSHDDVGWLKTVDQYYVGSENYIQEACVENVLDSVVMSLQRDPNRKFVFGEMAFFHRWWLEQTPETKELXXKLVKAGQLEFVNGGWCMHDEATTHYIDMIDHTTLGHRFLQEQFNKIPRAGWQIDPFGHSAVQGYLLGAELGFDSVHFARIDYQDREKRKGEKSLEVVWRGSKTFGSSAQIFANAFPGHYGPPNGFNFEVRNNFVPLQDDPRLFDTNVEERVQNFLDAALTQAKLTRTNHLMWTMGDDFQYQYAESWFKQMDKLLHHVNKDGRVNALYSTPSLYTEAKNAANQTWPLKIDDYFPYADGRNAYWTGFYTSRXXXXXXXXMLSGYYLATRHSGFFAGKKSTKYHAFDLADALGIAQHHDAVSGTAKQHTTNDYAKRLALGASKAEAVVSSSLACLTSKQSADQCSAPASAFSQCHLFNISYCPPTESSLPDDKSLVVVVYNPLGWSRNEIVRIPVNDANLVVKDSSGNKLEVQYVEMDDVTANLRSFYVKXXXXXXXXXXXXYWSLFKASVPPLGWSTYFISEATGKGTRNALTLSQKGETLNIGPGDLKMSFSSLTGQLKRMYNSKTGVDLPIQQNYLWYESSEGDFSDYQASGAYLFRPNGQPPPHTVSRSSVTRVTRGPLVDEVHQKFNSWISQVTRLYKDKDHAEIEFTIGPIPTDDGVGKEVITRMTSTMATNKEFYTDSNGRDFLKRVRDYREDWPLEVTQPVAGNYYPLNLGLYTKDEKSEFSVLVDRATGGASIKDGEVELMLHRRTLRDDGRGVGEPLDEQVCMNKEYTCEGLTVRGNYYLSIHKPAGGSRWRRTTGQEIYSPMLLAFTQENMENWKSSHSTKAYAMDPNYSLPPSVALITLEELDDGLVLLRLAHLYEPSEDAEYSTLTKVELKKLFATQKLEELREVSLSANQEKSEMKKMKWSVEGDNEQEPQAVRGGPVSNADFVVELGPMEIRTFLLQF
Protocol: as §1, §2, §3, §4, §5, §6, §7, §8, §9

[4] = tested on: β-glucosidase EC 3.2.1.21; assay: Commercial glycosidase screening; assay type: biochemical; details: almonds
Protocol: as §1, §2, §3, §4, §5, §6, §7, §8, §9

[5] = tested on: α-glucosidase EC 3.2.1.20; assay: Commercial glycosidase screening; assay type: biochemical
Protocol: as §1, §2, §3, §4
(§10) α-galactosidase EC 3.2.1.22
(§11) β-galactosidase EC 3.2.1.23
(§12) α-glucosidase EC 3.2.1.20
(§13) amyloglucosidase EC 3.2.1.3
as §6, §7
(§14) β-mannosidase EC 3.2.1.25
(§15) β-N-acetylglucosaminidase EC 3.2.1.52
as §9

[6] = tested on: β-N-acetylglucosaminidase EC 3.2.1.52; assay: Commercial glycosidase screening; assay type: biochemical
Protocol: as §1, §2, §3, §4, §10, §11, §12, §13, §6, §7, §14, §15, §9

[7] = biological target: T3, β-galactosidase EC 3.2.1.23 (Aspergillus oryzae, UniProt Q2UCU3); assay: Commercial glycosidase screening; assay type: biochemical; details: read-out: % Inhibition at 0.1 mM
T3 construct: purchased
T3 sequence (Q2UCU3 19-1005): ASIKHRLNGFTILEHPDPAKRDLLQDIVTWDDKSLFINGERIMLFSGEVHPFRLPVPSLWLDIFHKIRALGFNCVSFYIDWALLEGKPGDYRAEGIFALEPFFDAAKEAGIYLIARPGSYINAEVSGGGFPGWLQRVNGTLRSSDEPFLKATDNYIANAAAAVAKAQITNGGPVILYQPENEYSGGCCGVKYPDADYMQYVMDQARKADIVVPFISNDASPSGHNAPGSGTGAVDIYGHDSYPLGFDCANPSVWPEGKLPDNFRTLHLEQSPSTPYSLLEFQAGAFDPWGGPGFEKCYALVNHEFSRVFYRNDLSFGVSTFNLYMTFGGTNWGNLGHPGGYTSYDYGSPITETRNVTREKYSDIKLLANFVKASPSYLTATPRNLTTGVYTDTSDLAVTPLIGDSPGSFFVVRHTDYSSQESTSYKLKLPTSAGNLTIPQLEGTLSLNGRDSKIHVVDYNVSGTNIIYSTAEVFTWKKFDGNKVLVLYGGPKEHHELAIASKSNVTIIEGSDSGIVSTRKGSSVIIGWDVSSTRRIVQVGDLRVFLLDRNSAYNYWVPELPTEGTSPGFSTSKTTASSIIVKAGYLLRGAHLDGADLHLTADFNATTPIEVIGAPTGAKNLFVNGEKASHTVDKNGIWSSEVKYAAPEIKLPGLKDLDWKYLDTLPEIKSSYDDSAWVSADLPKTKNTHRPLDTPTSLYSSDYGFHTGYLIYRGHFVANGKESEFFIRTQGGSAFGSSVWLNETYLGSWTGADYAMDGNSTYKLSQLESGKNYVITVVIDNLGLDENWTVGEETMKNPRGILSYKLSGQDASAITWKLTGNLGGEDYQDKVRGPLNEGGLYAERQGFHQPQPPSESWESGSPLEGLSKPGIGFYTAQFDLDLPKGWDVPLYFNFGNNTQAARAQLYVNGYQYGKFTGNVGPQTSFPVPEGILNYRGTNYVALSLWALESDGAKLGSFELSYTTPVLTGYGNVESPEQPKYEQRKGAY
Protocol: as §1, §2, §3, §4, §10, §11, §12, §13, §6, §7, §14, §15, §9

[8] = biological target: T4, β-galactosidase EC 3.2.1.23 (Escherichia coli, UniProt P00722); assay: Commercial glycosidase screening; assay type: biochemical; details: read-out: % Inhibition at 0.1 mM
T4 construct: purchased
T4 sequence (P00722 2-1024): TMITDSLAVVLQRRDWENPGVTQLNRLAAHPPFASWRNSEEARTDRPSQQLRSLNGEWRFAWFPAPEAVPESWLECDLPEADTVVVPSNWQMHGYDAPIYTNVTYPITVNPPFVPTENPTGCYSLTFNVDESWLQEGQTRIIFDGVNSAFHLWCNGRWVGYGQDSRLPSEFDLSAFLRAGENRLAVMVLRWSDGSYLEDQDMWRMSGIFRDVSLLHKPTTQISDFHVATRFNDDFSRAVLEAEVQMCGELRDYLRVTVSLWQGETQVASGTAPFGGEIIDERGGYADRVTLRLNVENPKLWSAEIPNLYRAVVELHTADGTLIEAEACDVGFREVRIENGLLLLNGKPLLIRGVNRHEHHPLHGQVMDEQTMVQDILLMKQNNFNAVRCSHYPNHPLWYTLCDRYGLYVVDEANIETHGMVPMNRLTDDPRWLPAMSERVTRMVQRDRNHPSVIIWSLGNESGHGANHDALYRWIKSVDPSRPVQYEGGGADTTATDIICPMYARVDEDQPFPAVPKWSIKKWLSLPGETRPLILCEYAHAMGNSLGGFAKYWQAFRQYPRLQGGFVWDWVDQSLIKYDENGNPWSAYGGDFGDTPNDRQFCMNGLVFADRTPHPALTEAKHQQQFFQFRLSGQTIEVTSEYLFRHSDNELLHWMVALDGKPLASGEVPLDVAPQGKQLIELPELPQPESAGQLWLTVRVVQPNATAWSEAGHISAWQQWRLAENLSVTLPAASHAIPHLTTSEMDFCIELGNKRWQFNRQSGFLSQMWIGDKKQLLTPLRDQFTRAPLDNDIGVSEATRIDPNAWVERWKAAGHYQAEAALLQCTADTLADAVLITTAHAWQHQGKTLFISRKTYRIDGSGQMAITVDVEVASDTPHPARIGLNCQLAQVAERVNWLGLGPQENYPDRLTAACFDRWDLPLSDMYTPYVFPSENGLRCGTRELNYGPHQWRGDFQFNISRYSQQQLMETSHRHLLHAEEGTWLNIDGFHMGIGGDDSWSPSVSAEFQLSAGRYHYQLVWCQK
Protocol: as §1, §2, §3, §4, §10, §11, §12, §13, §6, §7, §14, §15, §9

| SMILES | cell viability [1] | GCase enzymatic activity rescue [1] | % Inhibition at 0.1 mM [2] | inhibition at 100 µM [3] [%] | % Inhibition at 0.1 mM [4] | % Inhibition at 0.1 mM ([5]; rice) | % Inhibition at 0.1 mM ([5]; yeast) | % Inhibition at 0.1 mM ([6]; Jack beans) | % Inhibition at 0.1 mM ([6]; bovine kidney) | inhibition at 100 µM [7] [%] | inhibition at 100 µM [8] [%] |
| --- | --- | --- | --- | --- | --- | --- | --- | --- | --- | --- | --- |
| CCCCCCCC[C@@H]1[C@@H](O)[C@H](O)[C@H](O)CN1CCCCCCCC [compound 15, (2R,3R,4R,5R)-1,2-Dioctylpiperidine-3,4,5-triol] | low cell viability | no enzymatic activity rescue; also recorded: no GCase activity enhancements | - (“-“: no inhibition (or less than 15%) detected.) | < 15 | - (“-“: no inhibition (or less than 15%) detected.) | - (“-“: no inhibition (or less than 15%) detected.) | - (“-“: no inhibition (or less than 15%) detected.) | - (“-“: no inhibition (or less than 15%) detected.) | - (“-“: no inhibition (or less than 15%) detected.) | < 15 | < 15 |
| CCCCCCCC[C@H]1[C@@H](O)[C@H](O)[C@H](O)CN1CCCCCCCC [compound 14, (2S,3R,4R,5R)-1,2-Dioctylpiperidine-3,4,5-triol] | low cell viability | no enzymatic activity rescue; also recorded: no GCase activity enhancements | - (“-“: no inhibition (or less than 15%) detected.) | < 15 | 30% | - (“-“: no inhibition (or less than 15%) detected.) | - (“-“: no inhibition (or less than 15%) detected.) | - (“-“: no inhibition (or less than 15%) detected.) | - (“-“: no inhibition (or less than 15%) detected.) | < 15 | < 15 |
